According to patent US9868775B2, “Sfrp5-derived peptide fragment and cosmetic composition for skin whitening containing same” (KNU-INDUSTRY COOPERATION FOUNDATION, priority 2014, dated 2018):

Assays:
TRP-2 [1] = experiment: RT-PCR, TRP-2 gene expression in human epidermal melanocytes; format: cell-based; details: α-MSH, predetermined concentrations, 72 hours, RT-PCR (FIG. 6)
Experimental: (§1) Human epidermal melanocytes were added to each well of a 6-well plate (1.5×10^5 cells per well), along with 2 ml of DMEM, and then stabilized through incubating in a 5% CO2 incubator at 37° C. for 24 hours. α-MSH (Sigma Co, MO, USA), a melanocyte-stimulating hormone, was treated to each well, along with the peptide of SEQ ID NO: 8 in predetermined concentrations. After incubating the cells for 72 hours, the total RNAs were extracted therefrom and then cDNAs were synthesized. The cDNA syntheses were carried out with a Reverse Transcription Master premix (Elpisbiotech, Daejeon, Korea). Using each synthesized cDNA as a template, reverse transcription polymerase chain reactions (RT-PCR) were carried out with a ROTOR Q GENE apparatus. Each RT-PCR solution was prepared by mixing 1 μl of cDNA, 10 μl of TOPreal qRT-PCR2X premix (Enzynomics, Daejeon, Korea), 2 μl of primer set (10 pmol) and 7 μl of D.W. The RT-PCR was carried out as follows: initially at 94° C. for 10 minutes; and then at 94° C. for 10 seconds, at 58° C. for 30 seconds, and at 72° C. for 1 minute; 40 cycles.

MITF [2] = experiment: RT-PCR, MITF gene expression in human epidermal melanocytes; format: cell-based; details: α-MSH, predetermined concentrations, 72 hours, RT-PCR (FIG. 6)
Experimental: as §1

β-catenin = experiment: Western blotting, β-catenin expression in human epidermal melanocytes; format: cell-based; details: α-MSH, predetermined concentrations, 48 hours (FIG. 2)
Experimental: (§2) The effects of the peptide fragment of the present invention on the β-catenin expression and the GSK-3 phosphorylation, which plays a critical role in the activation of Wnt signaling pathways, were evaluated using a Western blotting assay. Human epidermal melanocytes (Cascade Biologics, #C-0245C; Portland, Oreg., USA) were added to 2 ml of DMEM in each well of a 6-well microplate (1.5×10^5 cells per well). The cells were then stabilized through incubating in a 5% CO2 incubator at 37° C. for 24 hours. α-MSH (Sigma Co, MO, USA), a melanocyte-stimulating hormone, was treated to each well, along with the peptide fragment of the present invention (the peptide of SEQ ID NO: 8) in predetermined concentrations. After the cells were cultured for 48 hours, the proteins were extracted therefrom. The obtained extracts were subject to the Western blotting assay using an anti-β-catenin antibody (Santa Cruz Co., CA, USA) and an anti-pGSK-3 antibody (Cell SignalingTechnology, MA, USA), so as to measure the levels of β-catenin expression and GSK-3 phosphorylation changes. […] Therefore, it can be seen that the peptide fragments of the present invention can inhibit the Wnt signaling pathways in melanocytes.

tyrosinase [3] = experiment: Western blotting, tyrosinase protein expression in human epidermal melanocytes; format: cell-based; details: α-MSH, predetermined concentrations, 24 hours (FIG. 5)
Experimental: (§3) We evaluated the effects of the peptide fragment of the present invention on the protein expressions of the melanin-producing enzymes in human epidermal melanocytes, using a Western blotting assay. Human epidermal melanocytes (Cascade Biologics, #C-0245C; Portland, Oreg., USA) were added to each well of a 6-well microplate (1.5×10^5 cells per well), along with 2 ml of DMEM, and then stabilized through incubating in a 5% CO2 incubator at 37° C. for 24 hours. α-MSH (Sigma Co, MO, USA), a melanocyte-stimulating hormone, was treated to each well, along with the peptide fragment of the present invention (the peptide of SEQ ID NO: 8) in predetermined concentrations. After incubating the cells for 24 hours, the proteins were extracted therefrom. The obtained extracts were subject to the Western blotting assay using an anti-MITF antibody (ABcam, Ma, USA), an anti-tyrosinase antibody (Santa Cruz Co., CA, USA), an anti-TRP-1 antibody (Santa Cruz Co., CA, USA), and an anti-TRP-2 antibody (Santa Cruz Co., CA, USA), so as to measure the expression levels of MITF, tyrosinase, TRP-1, and TRP-2.

tyrosinase (TYR) = experiment: RT-PCR, tyrosinase gene expression in human epidermal melanocytes; format: cell-based; details: α-MSH, predetermined concentrations, 72 hours, RT-PCR (FIG. 6)
Experimental: as §1

TRP-1 [4] = experiment: RT-PCR, TRP-1 gene expression in human epidermal melanocytes; format: cell-based; details: α-MSH, predetermined concentrations, 72 hours, RT-PCR (FIG. 6)
Experimental: as §1

GSK-3 = experiment: Western blotting, GSK-3 phosphorylation in human epidermal melanocytes; format: cell-based; details: α-MSH, predetermined concentrations, 48 hours (FIG. 2)
Experimental: as §2

MITF and β-catenin = experiment: in situ proximity ligation assay, binding between MITF and β-catenin; format: cell-based, mouse; details: B16F1 cells, similar methods to CREB test (FIG. 1c)
Experimental: The effects of the peptide fragments of the present invention on the β-catenin activation, which plays a critical role in Wnt signaling pathways, were evaluated using an in situ proximity ligation assay. The evaluation was performed with a commercially available kit, i.e., DUOLINK II in situ kit from Olink Bioscience, Sweden.
The mouse melanoma cell line B16F1 cells (Korean Cell Line Bank, Seoul) were added to 1 ml of DMEM in each well of a 24-well plate (5×10^4 cells per well), each well having a 12 mm glass in the bottom thereof. The cells were then stabilized through incubating in a 5% CO2 incubator at 37° C. for 24 hours. α-MSH (Sigma Co, MO, USA), a melanocyte-stimulating hormone (0.1 μM), and the peptide fragments of the present invention (1 μM) were treated to each well. The cells were cultured in a 5% CO2 incubator at 37° C. for 24 hours and then fixed with 4% paraformaldehyde. After a drop of the blocking solution was added to the cells on the 12 mm glass, the cells were then incubated at 37° C. for 30 minutes. Activation of the Wnt receptor increases the interaction between CREB (cyclic AMP response element-binding) and β-catenin. For determining the interaction levels thereof, the cells were treated with an anti-CREB polyclonal antibody (Santa Cruz Co., CA, USA) and an anti-β-catenin mouse monoclonal antibody (Santa Cruz Co., CA, USA) at 37° C. After incubating 30 minutes therefrom, the cells were treated with the PLA probe solution at 37° C. for 1 hour, with the ligation solution for 30 minutes, and then with the amplification solution for 100 minutes. After washing the cells with the washing buffer, the number of the red spots was measured with a confocal microscopy. In FIGS. 1a and 1b, the control means the group of no treatment and the α-MSH means the group treated with only α-MSH (i.e., without peptide treatment).
And also, according to similar methods in the above, we investigated the inhibitory effects of the peptides of SEQ ID NOs: 5, 8, and 9 on the binding between MITF and β-catenin.

TRP-2 [5] = experiment: Western blotting, TRP-2 protein expression in human epidermal melanocytes; format: cell-based; details: α-MSH, predetermined concentrations, 24 hours (FIG. 5)
Experimental: as §3

TRP-1 [6] = experiment: Western blotting, TRP-1 protein expression in human epidermal melanocytes; format: cell-based; details: α-MSH, predetermined concentrations, 24 hours (FIG. 5)
Experimental: as §3

MITF [7] = experiment: Western blotting, MITF protein expression in human epidermal melanocytes; format: cell-based; details: α-MSH, predetermined concentrations, 24 hours (FIG. 5)
Experimental: as §3

[8] = system: mouse melanoma cell line B16F10; experiment: inhibitory activity against melanin formation in B16F10; format: cell-based; details: B16F10, α-MSH 100 nM, peptide 0.1, 1, and 10 μM, 24 hours (FIG. 3)
Experimental: B16F10 cells (Korean Cell Line Bank, Seoul) were added to each well of a 6-well microplate (1.5×10^5 cells per well), along with 2 ml of DMEM, and then incubated in a 5% CO2 incubator at 37° C. for 24 hours. α-MSH (Sigma Co, MO, USA) (100 nM) was treated to each well, along with the peptide of SEQ ID NO: 8 in the final concentrations of 0.1, 1, and 10 μM. The groups in which α-MSH (100 nM) and arbutin (0.01%) were respectively treated were used as positive controls. After additionally incubating the cells for 24 hours, the pictures of each culture ware taken so as to compare the respective levels of melanin formation.

tyrosinase [9] = experiment: inhibitory activity against tyrosinase activity in B16F10 (L-DOPA, 490 nm); format: cell-based, mouse; details: B16F10, α-MSH, predetermined concentrations, 72 hours, 490 nm (FIG. 4)
Experimental: B16F10 cells (Korean Cell Line Bank, Seoul) were added to each well of a 24-well plate (5×10^4 cells per well), along with 1 ml of DMEM, and then stabilized through incubating in a 5% CO2 incubator at 37° C. for 24 hours. α-MSH (Sigma Co, MO, USA), a melanocyte-stimulating hormone, was treated to each well, along with the peptide of SEQ ID NO: 8 in predetermined concentrations. After incubating the cells for 72 hours, the proteins were extracted therefrom. The obtained extracts were added to each well of a 96-well plate ([…] per each well) and then treated with a L-dihydroxyphenylalanine (L-DOPA) solution (100 μL) at 37° C. for 2 hours. The groups in which α-MSH (100 nM) and arbutin (0.01%) were respectively treated were used as positive controls. After 2 hours, the pictures thereof were taken and the tyrosinase activities thereof were measured at 490 nm with a microreader.

Substance	gene expression of TRP-2 (TRP-2 [1])	gene expression of MITF (MITF [2])	level of β-catenin expression (β-catenin)	expression level of tyrosinase (protein) (tyrosinase [3])	gene expression of tyrosinase (TYR) (tyrosinase (TYR))	gene expression of TRP-1 (TRP-1 [4])	level of GSK-3 phosphorylation (GSK-3)	bindings between MITF and β-catenin (MITF and β-catenin)	expression level of TRP-2 (protein) (TRP-2 [5])	expression level of TRP-1 (protein) (TRP-1 [6])	expression level of MITF (protein) (MITF [7])	melanin formation (brown colors of cell culture) [8]	tyrosinase activity (tyrosinase [9])
Ala-Gln-Lys (AQK; Petide fragment) [SEQ ID NO: 8, Sfrp5-derived peptide fragment]	decreased in concentration-dependent manner	decreased in concentration-dependent manner	decreased	decreased	decreased in concentration-dependent manner	decreased in concentration-dependent manner	decreased	significantly decreased	decreased	decreased	decreased	decreased according to the concentrations of the peptide	decreased in concentration-dependent manner
Cys-Glu-Ala-Val (CEAV; Peptide fragment) [SEQ ID NO: 9, Sfrp5-derived peptide fragment]								significantly decreased					
Lys-Ile-Gly (KIG; Petide fragment) [SEQ ID NO: 5, Sfrp5-derived peptide fragment]								significantly decreased					
α-MSH: a melanocyte-stimulating hormone (Sigma Co, MO, USA), used as stimulant [reference compound]	increased	increased			increased	increased							increased
